Laboratory results: patent publication US20100016366A1, “Novel Compounds Active as Muscarinic Receptor Antagonists” (priority 2008, published 2010)
pKi: −log10 of the molar value.

Assays:
[1] = molecular target: T1, human muscarinic M3 receptor (Homo sapiens, UniProt P20309); assay: hM3 competition binding assay (3H-NMS, CHO cell membranes); details: CHO cell membranes expressing human M3; 3H-NMS at 5×KD, 24 hr at RT; IC50 corrected by Cheng-Prussoff
T1 construct: expressed in transfected cells; host or cells: CHO (CHO-K1) cells
T1 sequence (P20309 whole entry): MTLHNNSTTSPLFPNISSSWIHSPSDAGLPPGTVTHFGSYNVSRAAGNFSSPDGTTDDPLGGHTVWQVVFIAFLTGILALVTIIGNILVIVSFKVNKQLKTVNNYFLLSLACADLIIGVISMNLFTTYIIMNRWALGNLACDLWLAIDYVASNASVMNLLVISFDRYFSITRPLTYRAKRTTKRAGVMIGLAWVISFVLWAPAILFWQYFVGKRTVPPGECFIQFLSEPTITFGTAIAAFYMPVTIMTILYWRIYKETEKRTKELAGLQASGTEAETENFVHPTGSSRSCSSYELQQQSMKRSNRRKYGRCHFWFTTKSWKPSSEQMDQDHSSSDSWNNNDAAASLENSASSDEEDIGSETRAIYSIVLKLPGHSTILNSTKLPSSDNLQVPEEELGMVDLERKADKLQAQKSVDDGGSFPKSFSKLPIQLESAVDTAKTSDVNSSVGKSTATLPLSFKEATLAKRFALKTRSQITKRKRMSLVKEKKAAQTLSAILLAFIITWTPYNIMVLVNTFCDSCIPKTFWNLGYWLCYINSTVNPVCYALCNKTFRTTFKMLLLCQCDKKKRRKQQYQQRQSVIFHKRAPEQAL
Method: Binding Affinity Assessment at the Human Recombinant M3 Muscarinic Receptor
Cell Pellets from CHO (Chinese Hamster Ovary) cells recombinantly expressing the human muscarinic M3 receptor were homogenised in 20 mM HEPES (pH7.4) and centrifuged at 48000×g for 20 min at 4° C. The pellet was re-suspended in buffer and the homogenisation and centrifugation steps repeated. The resulting pellet was re-suspended in 1 ml buffer per 1 ml original packed cell volume and the homogenisation step repeated. Protein estimation was carried out on the suspension and 1 ml aliquots of ˜1 mg/ml frozen at −80° C.
hM3 Competition Binding Assay Protocol
Membranes (5 µg/well) were incubated with ^3H-NMS (at a concentration 5×KD) plus/minus test compound for 24 hr at RT (room temperature) in a 1 ml polystyrene 96-well deep well block. The final assay volume was 200 µl, comprising of: 20 µl plus/minus test compound; 20 µl ^3H-NMS (Perkin Elmer NEN 636) and 160 µl membrane solution. Total Binding was defined with 0.1% DMSO; Non-Specific Binding was defined with 1 µM Atropine. Assay buffer was 20 mM Hepes (pH 7.4).
Once all assay components were added, plates were covered and incubated at room temperature for 24 hrs with shaking. The assay was terminated by rapidly filtering through GF/B Unifilter plates pre-soaked with 0.5% polyethylenimine, using a Packard filtermate harvester, the filter plate was then washed with 3×1 ml 4° C. assay buffer. The filter plates were dried at 45° C. for 1 hour. The bottoms of the filter plates were sealed and 50 µl/well of Microscint ‘0’ added, the top of the plates were sealed with a Topseal. Following 90 mins, the plates were read on an NXT Topcount (1 minute read time per well).
The resulting data was expressed as a percentage of the specific binding (Specific binding=Total binding−Non-Specific Binding). % specific binding versus test compound concentration was plotted to determine an IC50 from a sigmoid curve using an in-house data analysis programme. IC50 values corrected to Ki values by applying the Cheng-Prussoff equation: […]
where IC50 is the concentration of unlabelled drug which inhibits by 50% the specific radioligand binding. [L] is the free radioligand concentrations and KD and Ki are the equilibrium dissociation constants of the radioligand and unlabelled drug respectively.

[2] = molecular target: T1, human muscarinic M3 receptor; assay: Cell based potency assessment, hM3 β-lactamase assay (CHO cell β-lactamase); details: CHO cells recombinantly expressing human M3, NFAT-β-lactamase reporter; inhibition of 80 nM carbamyl choline signal, 4 h; IC50 converted by Cheng-Prusoff
Method: Cell BASED POTENCY ASSESSMENT at the Human Recombinant M3 Muscarinic Receptor
M3 potency was determined in CHO-K1 cells transfected with the NFAT-Betalactamase gene. CHO (Chinese Hamster Ovary) cells recombinantly expressing the human muscarinic M3 receptor were transfected with the NFAT_β-Lac_Zeo plasmid. Cells were grown in DMEM with Glutamax-1, supplemented with 25 mM HEPES (Life Technologies 32430-027), containing 10% FCS (Foetal Calf Serum; Sigma F-7524), […] Sodium pyruvate (Sigma S-8636), NEAA (non-Essential Amino Acids; Invitrogen 11140-035) and 200 μg/ml Zeocin (Invitrogen R250-01).
hM3 β-Lactamase Assay Protocol
Cells were harvested for assay when they reached 80-90% confluency using enzyme free cell Dissociation Solution (Life technologies 13151-014) incubated with the cells for 5 min at 37° C. in an atmosphere containing 5% CO2. Detached cells were collected in warmed growth media and centrifuged at 2000 rpm for 10 min, washed in PBS (Phosphate Buffered Saline; Life Technologies 14190-094) and centrifuged again as just described. The cells were re-suspended at 2×10^5 cells/ml in growth medium (composition as described above). 20 μl of this cell suspension was added to each well of a 384 well black clear bottomed plate (Greiner Bio One 781091-PFI). The assay buffer used was PBS supplemented with 0.05% Pluronic F-127 (Sigma 9003-11-6) and 2.5% DMSO. Muscarinic M3 receptor signalling was stimulated using 80 nM carbamyl choline (Aldrich N240-9) incubated with the cells for 4 h at 37° C./5% CO2 and monitored at the end of the incubation period using a Tecan SpectraFluor+plate reader (λ−excitation 405 nm, emission 450 nm and 503 nm). M3 receptor antagonists under test were added to the assay at the beginning of the 4 h incubation period and compound activity measured as the concentration dependent inhibition of the carbamyl choline induced signal. Inhibition curves were plotted and IC50 values generated using a 4-parameter sigmoid fit and converted to Ki values using the Cheng-Prusoff correction and the KD value for carbamyl choline in the assay.

| SMILES | pKi [1] | pKi [2] |
| --- | --- | --- |
| O=C(Nc1ccccc1-c1ccccc1)OC1CCN(CCCCCCCCCNC(=O)c2ccc(Cl)c(O)c2)CC1 [Example 19, Biphenyl-2-yl-carbamic acid 1-[9-(4-chloro-3-hydroxy-benzoylamino)-nonyl]-piperidin-4-yl ester] | 8.84 | 8.88 |
| O=C(Nc1ccccc1-c1ccccc1)OC1CCN(CCCCCCCCCNC(=O)c2ccc(O)cc2F)CC1 [Example 20, Biphenyl-2-yl-carbamic acid 1-[9-(2-fluoro-4-hydroxy-benzoylamino)-nonyl]-piperidin-4-yl ester] | 8.71 | 9.04 |
| O=C(Nc1ccccc1-c1ccccc1)OC1CCN(CCCCCCCCCNC(=O)c2ccc(O)cc2Cl)CC1 [Example 21, Biphenyl-2-yl-carbamic acid 1-[9-(2-chloro-4-hydroxy-benzoylamino)-nonyl]-piperidin-4-yl ester] | 8.90 | 9.17 |
| O=C(Nc1ccccc1-c1ccccc1)OC1CCN(CCCCCCCCCNCc2cc(Cl)c(O)c(Cl)c2)CC1 [Example 22, Biphenyl-2-yl-carbamic acid 1-[9-(3,5-dichloro-4-hydroxy-benzylamino)-nonyl]-piperidin-4-yl ester] | 9.06 | 9.83 |
| O=C(Nc1ccccc1-c1ccccc1)OC1CCN(CCCCCCCCCNC(=O)c2ccc(O)c(F)c2F)CC1 [Example 23, Biphenyl-2-yl-carbamic acid 1-[9-(2,3-difluoro-4-hydroxy-benzoylamino)-nonyl]-piperidin-4-yl ester] | 8.62 | 9.56 |
| O=C(Nc1ccccc1-c1ccccc1)OC1CCN(CCCCCCCCCNC(=O)c2cc(Cl)c(O)c(Cl)c2)CC1 [Example 25, Biphenyl-2-yl-carbamic acid 1-[9-(4-hydroxy-3,5-dichloro-benzoylamino)-nonyl]-piperidin-4-yl ester] | 8.36 | 9.07 |
| O=C(Nc1ccccc1-c1ccccc1)OC1CCN(CCCCCCCCCNCc2cc(F)c(O)c(F)c2)CC1 [Example 27, Biphenyl-2-yl-carbamic acid 1-[9-(3,5-difluoro-4-hydroxy-benzylamino)-nonyl]-piperidin-4-yl ester] | 8.96 | 9.68 |
| O=C(Nc1ccccc1-c1ccccc1)OC1CCN(CCCCCCCCCNCc2cc(Cl)c(Cl)cc2O)CC1 [Example 28, Biphenyl-2-yl-carbamic acid 1-[9-(2-hydroxy-4,5-dichloro-benzylamino)-nonyl]-piperidin-4-yl ester] | 8.42 | 8.44 |
| O=C(Nc1ccccc1-c1ccccc1)OC1CCN(CCCCCCCCCNCc2cc(F)cc(F)c2O)CC1 [Example 29, Biphenyl-2-yl-carbamic acid 1-[9-(2-hydroxy-3,5-difluoro-benzylamino)-nonyl]-piperidin-4-yl ester] | 8.87 | 9.09 |
| O=C(Nc1ccccc1-c1ccccc1)OC1CCN(CCCCCCCCCNCc2cccc(F)c2O)CC1 [Example 30, Biphenyl-2-yl-carbamic acid 1-[9-(2-hydroxy-3-fluoro-benzylamino)-nonyl]-piperidin-4-yl ester] | 8.88 | 9.15 |
| O=C(Nc1ccccc1-c1ccccc1)OC1CCN(CCCCCCCCCNCc2cc(Cl)cc(Cl)c2O)CC1 [Example 31, Biphenyl-2-yl-carbamic acid 1-[9-(2-hydroxy-3,5-dichloro-benzylamino)-nonyl]-piperidin-4-yl ester] | 8.61 | 9.14 |
| O=C(Nc1ccccc1-c1ccccc1)OC1CCN(CCCCCCCCCNCc2cc(Cl)ccc2O)CC1 [Example 32, Biphenyl-2-yl-carbamic acid 1-[9-(5-chloro-2-hydroxy-benzylamino)-nonyl]-piperidin-4-yl ester] | 8.52 | 8.87 |
| O=C(Nc1ccccc1-c1ccccc1)OC1CCN(CCCCCCCCCNCc2cc(F)c(Cl)cc2O)CC1 [Example 33, Biphenyl-2-yl-carbamic acid 1-[9-(2-hydroxy-4-chloro-5-fluoro-benzylamino)-nonyl]-piperidin-4-yl ester] | 8.22 | 8.57 |
| O=C(Nc1ccccc1-c1ccccc1)OC1CCN(CCCCCCCCCNCc2ccc(O)c(Cl)c2)CC1 [Example 34, Biphenyl-2-yl-carbamic acid 1-[9-(3-chloro-4-hydroxy-benzylamino)-nonyl]-piperidin-4-yl ester] | 9.10 | 9.02 |
| O=C(Nc1ccccc1-c1ccccc1)OC1CCN(CCCCCCCCCNCc2cc(F)ccc2O)CC1 [Example 35, Biphenyl-2-yl-carbamic acid 1-[9-(2-hydroxy-5-fluoro-benzylamino)-nonyl]-piperidin-4-yl ester] | 8.86 | 8.79 |
| O=C(Nc1ccccc1-c1ccccc1)OC1CCN(CCCCCCCCCNCc2ccc(F)c(O)c2)CC1 [Example 36, Biphenyl-2-yl-carbamic acid 1-[9-(3-hydroxy-4-fluoro-benzylamino)-nonyl]-piperidin-4-yl ester] | 9.63 | 8.65 |
| O=C(Nc1ccccc1-c1ccccc1)OC1CCN(CCCCCCCCCNCc2ccc(Cl)c(O)c2Cl)CC1 [Example 37, Biphenyl-2-yl-carbamic acid 1-[9-(2,4-dichloro-3-hydroxy-benzylamino)-nonyl]-piperidin-4-yl ester] | 9.47 | 8.95 |
| O=C(Nc1ccccc1-c1ccccc1)OC1CCN(CCCCCCCCCNCc2ccc(O)c(F)c2)CC1 [Example 38, Biphenyl-2-yl-carbamic acid 1-[9-(4-hydroxy-3-fluoro-benzylamino)-nonyl]-piperidin-4-yl ester] | 9.76 | 8.83 |
